Speed of sound, mass density and refractive index data for one compound are collected here from the NIST ThermoML archive (doi:10.1016/j.jct.2019.03.024).

Numbers after ± are expanded uncertainties.

For data set [1] the following is noted: 298.15 K, 86.5 kPa, Liquid.
A short description of data set [2]: refractive index (Na D-line) (dimensionless). The note with it: 298.15 K; 86.5 kPa; Liquid; Standard Abbe refractometry.

As usually defined, the speed of sound is how fast a sound wave travels through the sample. The mass density is the mass of a sample divided by its volume. As a reminder, the refractive index is the speed of light in vacuum divided by its phase velocity in the sample. Consider `CCCCCCCCn1cc[n+](C)c1.[Br-]` [1-methyl-3-octylimidazolium bromide], for which the speed of sound in data set [1] (Frequency=3 MHz, Single path-length method) turned out to be 1561.8 ± 2.2 m/s. The mass density in data set [1] (Vibrating tube method) was 1172.98 ± 2.3 kg/m3. Moreover, the refractive index in data set [2] is 1.5217 ± 0.02.
